Assay results from ChEMBL document CHEMBL1671731, “Fluoroquinolone efflux by the plasmid-mediated multidrug efflux pump QacB variant QacBIII in Staphylococcus aureus” (2010).
≈ marks a conversion by molar mass, not a printed value. Calls of active or inactive are those of the source. The rule behind the calls is not given here.

Key:
Staphylococcus aureus [1] = test: Antimicrobial activity against Staphylococcus aureus RDN1 harboring cloned pTZ2238-encoded QacBIV A184V mutant gene by agar dilution method; type: functional
Staphylococcus aureus [2] = test: Antimicrobial activity against Staphylococcus aureus RDN1 harboring cloned pTZ2396-encoded QacA gene by agar dilution method; type: functional
Staphylococcus aureus [3] = test: Antimicrobial activity against Staphylococcus aureus RDN1 harboring cloned pTZ2238-encoded QacBIV A19T mutant gene by agar dilution method; type: functional
Staphylococcus aureus [4] = test: Antimicrobial activity against Staphylococcus aureus RDN1 harboring cloned pTZN10 containing cat and bla genes by agar dilution method; type: functional
Staphylococcus aureus [5] = test: Antimicrobial activity against Staphylococcus aureus RDN1 harboring cloned pTZ2162-encoded QacBIII E320A mutant gene by agar dilution method; type: functional
Staphylococcus aureus [6] = test: Antimicrobial activity against Staphylococcus aureus RDN1 harboring cloned pTZ2238-encoded QacBIV gene by agar dilution method; type: functional
Staphylococcus aureus [7] = test: Antimicrobial activity against Staphylococcus aureus RDN1 harboring cloned pTZ2238-encoded QacBIV S151I mutant gene by agar dilution method; type: functional
Staphylococcus aureus [8] = test: Antimicrobial activity against Staphylococcus aureus RDN1 harboring cloned pTZ2182-encoded QacBII gene by agar dilution method; type: functional
Staphylococcus aureus [9] = test: Antimicrobial activity against Staphylococcus aureus RDN1 harboring cloned pTZ2238-encoded QacBIV E377G mutant gene by agar dilution method; type: functional
Staphylococcus aureus [10] = test: Antimicrobial activity against Staphylococcus aureus RDN1 harboring cloned pTZ2162-encoded QacBIII gene by agar dilution method; type: functional
[11] = Activity of antiseptic efflux protein QacBIII expressed in Staphylococcus aureus RDN1 assessed as decrease in compound accumulation
[12] = Activity of antiseptic efflux protein QacBIII expressed in Staphylococcus aureus RDN1 assessed as decrease in compound accumulation in presence of CCCP

Row | Compound | MIC (Staphylococcus aureus [1]) | MIC (Staphylococcus aureus [2]) | MIC (Staphylococcus aureus [3]) | MIC (Staphylococcus aureus [4]) | MIC (Staphylococcus aureus [5]) | MIC (Staphylococcus aureus [6]) | MIC (Staphylococcus aureus [7]) | MIC (Staphylococcus aureus [8]) | MIC (Staphylococcus aureus [9]) | MIC (Staphylococcus aureus [10]) | Activity [11] | Activity [12]
1 | [Cl-].c1ccc([P+](c2ccccc2)(c2ccccc2)c2ccccc2)cc1 [TETRAPHENYLPHOSPHONIUM CHLORIDE] | 512 µg/mL | 256 µg/mL | 512 µg/mL | 4 µg/mL | 256 µg/mL | 512 µg/mL | 512 µg/mL | 256 µg/mL | 512 µg/mL | 512 µg/mL |  | 
2 | CC[n+]1c(-c2ccccc2)c2cc(N)ccc2c2ccc(N)cc21.[Br-] [HOMIDIUM BROMIDE] | ≥ 2050 µg/mL | ≥ 2050 µg/mL | ≥ 2050 µg/mL | 1 µg/mL | ≥ 2050 µg/mL | ≥ 2050 µg/mL | ≥ 2050 µg/mL | ≥ 2050 µg/mL | ≥ 2050 µg/mL | 256 µg/mL |  | 
3 | C[n+]1c2cc(N)ccc2cc2ccc(N)cc21.[Cl-] [EUFLAVINE] | 1020 µg/mL | 1020 µg/mL | 1020 µg/mL | 1 µg/mL | 1020 µg/mL | 1020 µg/mL | 1020 µg/mL | 1020 µg/mL | 1020 µg/mL | 256 µg/mL |  | 
4 | N=C(NCCCCCCNC(=N)NC(=N)Nc1ccc(Cl)cc1)NC(=N)Nc1ccc(Cl)cc1.O=C(O)[C@H](O)[C@@H](O)[C@H](O)[C@H](O)CO | 4 µg/mL | 2 µg/mL | 4 µg/mL | 0.25 µg/mL | 4 µg/mL | 4 µg/mL | 4 µg/mL | 4 µg/mL | 2 µg/mL | 2 µg/mL |  | 
5 | CN(C)c1ccc(C(=C2C=CC(=[N+](C)C)C=C2)c2ccc(N(C)C)cc2)cc1.[Cl-] [GENTIAN VIOLET] | 0.5 µg/mL | ≥ 1 µg/mL | 0.5 µg/mL | 0.13 µg/mL | ≥ 1 µg/mL | 0.5 µg/mL | 0.5 µg/mL | ≥ 1 µg/mL | ≥ 1 µg/mL | 0.5 µg/mL |  | 
6 | C[C@H]1COc2c(N3CCN(C)CC3)c(F)cc3c(=O)c(C(=O)O)cn1c23.C[C@H]1COc2c(N3CCN(C)CC3)c(F)cc3c(=O)c(C(=O)O)cn1c23.O [LEVOFLOXACIN] |  | 0.25 µg/mL |  | 0.25 µg/mL | 0.25 µg/mL | 0.25 µg/mL |  | 0.25 µg/mL |  | 0.25 µg/mL |  | 
7 | CCn1cc(C(=O)O)c(=O)c2cc(F)c(N3CCNCC3)cc21 [NORFLOXACIN] |  | 0.25 µg/mL (≈ 0.783 µM) |  | 0.13 µg/mL (≈ 0.407 µM) | 0.13 µg/mL (≈ 0.407 µM) | 0.13 µg/mL (≈ 0.407 µM) |  | 0.13 µg/mL (≈ 0.407 µM) |  | 0.5 µg/mL (≈ 1.57 µM) | Active | inactive
8 | CC(=O)NCC(=O)O.N=C(N)c1ccc(/N=N/Nc2ccc(C(=N)N)cc2)cc1 [DIMINAZEN ACETURATE] | 2050 µg/mL | 2050 µg/mL | 2050 µg/mL | 4 µg/mL | 512 µg/mL | 2050 µg/mL | 2050 µg/mL | 512 µg/mL | 512 µg/mL | 1020 µg/mL |  | 
9 | N=C(N)c1ccc(OCCCCCOc2ccc(C(=N)N)cc2)cc1.O=S(=O)(O)CCO | 1020 µg/mL | 512 µg/mL | 1020 µg/mL | 1 µg/mL | 512 µg/mL | 1020 µg/mL | 1020 µg/mL | 512 µg/mL | 512 µg/mL | 512 µg/mL |  | 
10 | O=C(O)c1cn(C2CC2)c2cc(N3CCNCC3)c(F)cc2c1=O [CIPROFLOXACIN] |  | 0.13 µg/mL (≈ 0.392 µM) |  | 0.06 µg/mL (≈ 0.181 µM) | 0.06 µg/mL (≈ 0.181 µM) | 0.06 µg/mL (≈ 0.181 µM) |  | 0.06 µg/mL (≈ 0.181 µM) |  | 0.25 µg/mL (≈ 0.754 µM) | Active | inactive
